target: T1, human CRHR2-alpha (Homo sapiens, UniProt Q13324); experiment: cAMP functional assay for human CRHR2 (LANCE Ultra cAMP, TR-FRET); type: cell-based; details: CHO-K1 cells expressing human CRHR2-alpha, agonist human urocortin2 at EC80, cAMP; read-out: IC50 against CRHR2
T1 sequence (Q13324 1-411): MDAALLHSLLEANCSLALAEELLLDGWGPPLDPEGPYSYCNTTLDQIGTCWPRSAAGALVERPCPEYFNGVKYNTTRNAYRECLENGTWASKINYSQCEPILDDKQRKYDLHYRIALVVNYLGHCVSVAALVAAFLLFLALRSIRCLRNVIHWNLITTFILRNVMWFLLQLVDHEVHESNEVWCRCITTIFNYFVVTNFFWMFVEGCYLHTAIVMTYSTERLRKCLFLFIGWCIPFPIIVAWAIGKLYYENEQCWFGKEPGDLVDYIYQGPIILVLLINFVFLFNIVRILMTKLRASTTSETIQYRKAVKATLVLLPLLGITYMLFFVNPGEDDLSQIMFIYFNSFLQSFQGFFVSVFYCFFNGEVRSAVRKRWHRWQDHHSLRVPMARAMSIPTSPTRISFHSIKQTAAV
How it was run: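 CHO-K1 cells stably expressing each receptor, serum-starved and cryopreserved, were preincubated with compound 30 min at 25° C in HBSS buffer with 0.5 mM IBMX, pH 7.4, then stimulated 30 min with EC80 agonist (urocortin2 for CRHR2, CRF for CRHR1). cAMP read by TR-FRET; IC50 from percent-inhibition curves.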

Row | IC50 | SMILES
1 | < 300 nM | Cc1ncc(Cl)cc1C(=O)N[C@H]1CC[C@H](Cn2c(=O)n(-c3ccc(C(=O)Nc4ccccn4)nc3)c3ccccc32)CC1 [Example 174, 5-(3-(((1r,4r)-4-(5-chloro-2-methylnicotinamido)cyclo-hexyl)methyl)-2-oxo-2,3-dihydro-1H-benzo[d]imidazol-1-yl)-N-(pyridin-2-yl) picolinamide]
2 | < 300 nM | Cc1c[nH]c2ncc(-n3c(=O)n(C[C@H]4CC[C@H](NC(=O)c5cc(Cl)cnc5C(F)F)CC4)c4ncccc43)cc12 [Example 578, 5-chloro-2-(difluoromethyl)-N-((1r,4r)-4-((1-(3-methyl-1H-pyrrolo[2,3-b]pyridin-5-yl)-2-oxo-1H-imidazo[4,5-b]pyridin-3(2H)-yl)methyl)cyclohexyl)nicotinamide]
3 | < 300 nM | Cc1ncc(Cl)cc1C(=O)N[C@H]1CC[C@H](Cn2c(=O)n(-c3ccn4cncc4c3)c3ccccc32)CC1 [Example 296, 5-chloro-N-((1r,4r)-4-((3-(imidazo[1,5-a]pyridin-7-yl)-2-oxo-2,3-dihydro-1H-benzo[d]imidazol-1-yl)methyl)cyclohexyl)-2-methylnicotinamide]
4 | < 300 nM | CNc1ccc(-n2c(=O)n(C[C@H]3CC[C@H](NC(=O)c4cc(Cl)cnc4C(F)(F)F)CC3)c3ccccc32)cn1 [Example 332, 5-chloro-N-((1r,4r)-4-((3-(6-(methylamino)pyridin-3-yl)-2-oxo-2,3-dihydro-1H-benzo[d]imidazol-1-yl)methyl)cyclohexyl)-2-(trifluoromethyl) nicotinamide]
5 | < 300 nM | O=C(N[C@H]1CC[C@H](Cn2c(=O)n(-c3cncc4ccccc34)c3ccccc32)CC1)c1cc(Cl)cnc1C(F)F [Example 418, 5-chloro-2-(difluoromethyl)-N-((1r,4r)-4-((3-(isoquinolin-4-yl)-2-oxo-2,3-dihydro-1H-benzo [d]imidazol-1-yl)methyl)cyclo-hexyl)nicotinamide]
6 | < 300 nM | Cc1ncc(Cl)cc1C(=O)N[C@H]1CC[C@H](Cn2c(=O)n(-c3ccc(NCC4CC4)nc3)c3ccccc32)CC1 [Example 105, 5-chloro-N-((1r,4r)-4-((3-(6-((cyclopropylmethyl)amino)pyridin-3-yl)-2-oxo-2,3-dihydro-1H-benzo[d]imidazol-1-yl)methyl)cyclohexyl)-2-methylnicotinamide]
7 | < 300 nM | Cc1ncc(Cl)cc1C(=O)N[C@H]1CC[C@H](Cn2c(=O)n(-c3cccc(N4CCOCC4)c3)c3ccccc32)CC1 [Example 444, 5-chloro-2-methyl-N-((1r,4r)-4-((3-(3-morpholinophenyl)-2-oxo-2,3-dihydro-1H-benzo [d]imidazol-1-yl)methyl)cyclo-hexyl)nicotinamide]
8 | < 300 nM | CC(=O)Nc1cc(C)c(-n2c(=O)n(C[C@H]3CC[C@H](NC(=O)c4cc(Cl)cnc4C(F)F)CC3)c3ccccc32)cn1 [Example 559, N-((1r,4r)-4-((3-(6-acetamido-4-methylpyridin-3-yl)-2-oxo-2,3-dihydro-1H-benzo[d]imidazol-1-yl)methyl)cyclo-hexyl)-5-chloro-2-(difluoro-methyl)nicotinamide]
9 | < 300 nM | Cc1ncc(Cl)cc1C(=O)N[C@H]1CC[C@H](Cn2c(=O)n(-c3ccc(-c4ccn(C)n4)nc3)c3ccccc32)CC1 [Example 654, 5-chloro-2-methyl-N-((1r,4r)-4-((3-(6-(1-methyl-1H-pyrazol-3-yl)pyridin-3-yl)-2-oxo-2,3-dihydro-1H-benzo[d]imidazol-1-yl)methyl)cyclohexyl)nico-tinamide]
10 | < 300 nM | Cc1c[nH]c2ncc(-n3c(=O)n(C[C@H]4CC[C@H](NC(=O)c5cc(Cl)cnc5C(F)(F)F)CC4)c4cccnc43)cc12 [Example 427, 5-chloro-N-((1r,4r)-4-((3-(3-methyl-1H-pyrrolo[2,3-b]pyridin-5-yl)-2-oxo-2,3-dihydro-1H-imidazo[4,5-b]pyridin-1-yl)methyl)cyclo-hexyl)-2-(trifluoromethyl) nicotinamide]

From patent US11802120B2, “Fused cyclic urea derivatives as CRHR2 antagonist” (RaQualia Pharma Inc., priority 2018, dated 2023)
